Results as given in patent US20140018375A1, “BIOLOGICAL MARKERS PREDICTIVE OF ANTI-CANCER RESPONSE TO EPIDERMAL GROWTH FACTOR RECEPTOR KINASE INHIBITORS” (priority 2005, published 2014).
Entries after “also recorded” stand apart in the source; their conditions may differ. Like-named read-outs stand apart in the source and are kept apart here.

Legend:
H292 = test: Cell-Titer Glo cell viability assay, H292; assay type: cell-based, human
Protocol: (§1) On day 1, NSCLC cells were plated 3-5×10^4 cells/well in 96 well plates in their normal serum-containing media. […] Manufacturers instructions were followed for the assay. Experiments were conducted in triplicate to at least an n=3. Data was normalized as a percentage inhibition compared to DMSO only control wells and concentration-response analysis was performed using Prizm graphing software.
(§2) The concentration response curves were analyzed in two ways.

SW1573 = test: Cell-Titer Glo cell viability assay, SW1573; assay type: cell-based, human
Protocol: as §1, §2

Calu6 = test: Cell-Titer Glo cell viability assay, Calu6; assay type: cell-based, human; details: for EC50: Homo sapiens
Protocol: as §1, §2

H358 = test: Cell-Titer Glo cell viability assay, H358; assay type: cell-based, human
Protocol: as §1, §2

H441 = test: Cell-Titer Glo cell viability assay, H441; assay type: cell-based, human
Protocol: as §1, §2

H292 xenograft = test: NSCLC xenograft tumor growth inhibition, H292; assay type: in vivo, mouse; details: oral gavage once a day for 14 days
Protocol: (§3) Female CD-1 nu/nu mice (Charles River Laboratories) were implanted with harvested NSCLC tumor cells in a single subcutaneous site on the flank of the mice in the axillary region. Tumors were allowed to grow to 200±50 mm^3, at which time the animals were sorted into treatment groups of 8 animals per group based on weight (±1 g body weight) and tattooed on the tail for permanent identification. Tumor volumes and body weights were determined twice weekly. The tumor volume was determined by measuring in two directions with vernier calipers and calculated using the formula: Tumor volume=(length×width^2)/2. The data were plotted as the % change in mean values of tumor volume and body weight for each group. […]. Tumor growth inhibition studies were dosed by oral gavage once a day for 14 days. Pharmacodynamic studies were dosed by oral gavage for 1-3 days with tumors from 4 control and 4 TARCEVA™ treated animals harvested and snap frozen in liquid nitrogen 4 hours after dosing on Days 1, 2 and 3.

H460 xenograft = test: NSCLC xenograft tumor growth inhibition, H460; assay type: in vivo, mouse; details: oral gavage once a day for 14 days
Protocol: as §3

H441 xenograft = test: NSCLC xenograft tumor growth inhibition, H441; assay type: in vivo, mouse; details: oral gavage once a day for 14 days
Protocol: as §3

BxPC3 = test: growth inhibition of pancreatic cell line in vitro, BxPC3; assay type: cell-based
Description: (§4) We next extended these studies to ask whether these observations would be applicable to other cancer cell types.

H1703 = test: Cell-Titer Glo cell viability assay, H1703; assay type: cell-based, human; details: for EC50: Homo sapiens
Protocol: as §1, §2

NSCLC cells = test: anti-phosphotyrosine capture and LC-MS/MS (iTRAQ) after erlotinib exposure; assay type: cell-based, human
Protocol: Anti-phosphotyrosine immunoaffinity resins were prepared by covalent coupling to a solid support by standard methods. Freshly prepared immunoaffinity resins were used for each biological experiment to maximize binding and reduce carryover. Briefly, anti-phosphotyrosine antibodies were crosslinked to solid-support and non-covalently bound IgG removed by low pH elution. […] Proteins isolated by anti-phosphotyrosine affinity selection were measured by iTRAQ labeling of tryptic peptides as previously described (Ross et al, (2004) Mol Cell Proteomics 3(12) 1154-1169; Haley et al., 2004). Peptide masses and sequence information were determined by electrospray LC-MS/MS and database searching. Peptides with confidence levels of >=90% with scores of >=20 were considered, after which spectra were inspected manually. […]. Proteins were clustered by temporal log2 protein expression ratios using Euclidian hierarchical methods and self-organizing maps.
Proteins associated with survival signaling and epithelial-mesenchymal cell phenotypes were isolated and measured using multiple experimental approaches, including mass spectrometry. Individual protein abundance, or extent of phosphorylation on tyrosine residues, was compared between different NSCLC tumor lines. Mass spectrometry approaches additionally included cellular fractionation, phosphotyrosine protein-capture and phosphopeptide-capture using four NSCLC model cell lines. The NSCLC lines were chosen to reflect a range of sensitivities to pharmacological EGFR inhibition both in vitro and in xenografts. These NSCLC lines also span both epithelial and mesenchymal-like tumor phenotypes arising from EMT-like transitions occurring during tumor progression. Two MS quantitation approaches were pursued. First, between-cell comparisons were performed where membrane-particulate and cytosolic fractions were isolated and differences in protein abundance measured. In both cases the iTRAQ peptide labeling method was used to allow relative quantitation of proteins isolated under the different biological conditions. […]. Protein samples were proteolytically cleaved with trypsin, separately labeled with isobaric stable isotope mass labels (iTRAQ; Ross et al., 2005; Petti et al. 2005), combined and subjected to LC-MS/MS. Protein identification criteria conformed to the guidelines proposed by Bradshaw et al. (Bradshaw R. A., Burlingame A. L., Carr S., and Aebersold R. (2006) Mol Cell Proteomics 5:787-788).

H322 = test: Cell-Titer Glo cell viability assay, H322; assay type: cell-based, human
Protocol: as §1, §2

MiaPaca2 = test: growth inhibition of pancreatic cell line in vitro, MiaPaca2; assay type: cell-based
Description: as §4

A549 = test: Cell-Titer Glo cell viability assay, A549; assay type: cell-based, human
Protocol: as §1, §2

H460 = test: Cell-Titer Glo cell viability assay, H460; assay type: cell-based, human; details: for EC50: Homo sapiens
Protocol: as §1, §2

Calu6 xenograft = test: NSCLC xenograft tumor growth inhibition, Calu6; assay type: in vivo, mouse; details: oral gavage once a day for 14 days
Protocol: as §3

H358 xenograft = test: NSCLC xenograft tumor growth inhibition, H358; assay type: in vivo, mouse; details: oral gavage once a day for 14 days
Protocol: as §3

A549 xenograft = test: NSCLC xenograft tumor growth inhibition, A549; assay type: in vivo, mouse; details: oral gavage once a day for 14 days
Protocol: as §3

C#Cc1cccc(Nc2ncnc3cc(OCCOC)c(OCCOC)cc23)c1 [erlotinib, [6,7-bis(2-methoxyethoxy)-4-quinazolin-4-yl]-(3-ethynylphenyl)amine]
Max. Inhibition (%) (H292): 69% | Classification of sensitivity to erlotinib-mediated growth inhibition (H292; H292, in vitro and in xenografts): Sensitive | EC50 (H292; Homo sapiens, NCI-H292, 72 h, read-out: EC50 Half Maximal): 0.1 µM | Max. Inhibition (%) (SW1573): 25% | EC50 (SW1573; Homo sapiens, SW1573, 72 h, read-out: EC50 Half Maximal): 9 µM | Classification of sensitivity to erlotinib-mediated growth inhibition (SW1573; SW1573): relatively insensitive | Max. Inhibition (%) (Calu6): 46% | Classification of sensitivity to erlotinib-mediated growth inhibition (Calu6; Calu6, in vitro and in xenografts): relatively insensitive | EC50 (Calu6; Calu-6, 72 h, read-out: EC50 Half Maximal): > 10 µM | EC50 (Calu6; Calu-6, read-out: EC50, growth inhibition in vitro): > 10 µM | Max. Inhibition (%) (H358): 72% | Classification of sensitivity to erlotinib-mediated growth inhibition (H358; H358, in vitro and in xenografts): Sensitive | EC50 (H358; Homo sapiens, NCI-H358, 72 h, read-out: EC50 Half Maximal): 0.6 µM | Max. Inhibition (%) (H441): 55% | Classification of sensitivity to erlotinib-mediated growth inhibition (H441; H441, in vitro and in xenografts): Sensitive; also recorded: intermediate | EC50 (H441; Homo sapiens, NCI-H441, 72 h, read-out: EC50 Half Maximal): 2 µM | % TGI Day 15 (H292 xenograft): 85% | % TGI Day 15 (H460 xenograft): 6% | % TGI Day 15 (H441 xenograft): 60% | sensitivity to growth inhibition by erlotinib (BxPC3): sensitive | Max. Inhibition (%) (H1703): 30% | Classification of sensitivity to erlotinib-mediated growth inhibition (H1703; H1703): relatively insensitive | EC50 (H1703; NCI-H1703, 72 h, read-out: EC50 Half Maximal): 7 µM | EC50 (H1703; NCI-H1703, read-out: EC50, growth inhibition in vitro): > 10 µM | phosphocapture of the p21-activated kinase PAK2 (NSCLC cells; H1703 cells, 1, 4 and 24 hours): stimulated at all time points | regulation of Actin-like protein-6A and β-actin (NSCLC cells; cells with an epithelial phenotype, within 1 hour of erlotinib exposure (1 μM)): upregulation | regulation of α- and γ-actins and vimentin phosphoproteins (NSCLC cells; mesenchymal-like NSCLC cells, within 1 hour of erlotinib exposure (1 μM)): Down regulation | phosphocapture of Rho-GEF7 (NSCLC cells; mesenchymal-like cells): significant erlotinib-dependent increase | tyrosine phosphorylation for Erk2, ubiquitin and the tyrosine phosphatases SHP-2 and BDP-18 (NSCLC cells; primarily associated with an epithelial cell state): downregulation | Max. Inhibition (%) (H322): 80% | Classification of sensitivity to erlotinib-mediated growth inhibition (H322; H322): Sensitive | EC50 (H322; Homo sapiens, NCI-H322, 72 h, read-out: EC50 Half Maximal): 0.4 µM | sensitivity to growth inhibition by erlotinib (MiaPaca2): relatively insensitive | Max. Inhibition (%) (A549): 30% | Classification of sensitivity to erlotinib-mediated growth inhibition (A549; A549, in vitro and in xenografts): intermediate sensitivity | EC50 (A549; Homo sapiens, A549, 72 h, read-out: EC50 Half Maximal): 5 µM | Max. Inhibition (%) (H460): 30% | Classification of sensitivity to erlotinib-mediated growth inhibition (H460; H460, in vitro and in xenografts): relatively insensitive | EC50 (H460; NCI-H460, 72 h, read-out: EC50 Half Maximal): 5 µM | EC50 (H460; NCI-H460, read-out: EC50, growth inhibition in vitro): > 10 µM | % TGI Day 15 (Calu6 xenograft): 0% | % TGI Day 15 (H358 xenograft): 25% | % TGI Day 15 (A549 xenograft): 49%
